# From US20160082087A1, “WHITENING PROMOTING AGENT OR ATOPIC DERMATITIS AMELIORATING AGENT” (NITTA GELATIN INC., priority 2013, published 2016)
# Marks after values point to notes of the source that are not given here. Square brackets hold non-standard residues; d marks the D form. Ends that are not written are not given here. Hyp = O=C(O)[C@@H]1C[C@@H](O)CN1
# Legend:
# Format in all cases: cell-based, human
# [1] = tested on: endoserine-1 (ET-1); test: ET-1 expression suppression test (real time PCR); conditions: 0.5 mM, 24 hours, NHEK (NB), control 1.00, GAPDH corrected
# Procedure: (§1) A normal human epidermal keratinocyte NHEK (NB) (available from KURABO INDUSTRIES LTD.) was used. The cells were precultured in HuMedia-KG2 (available from KURABO INDUSTRIES LTD.), and 1.5×10^4 cells/mL×5 mL (7.5×10^4 cells/dish) were cultured in a 60 mm laboratory dish for two days. After confirming that the cells were subconfluent, the medium was replaced by 5 mL of HuMedia-KB2 (available from KURABO INDUSTRIES LTD.). Samples were added in respective concentrations, and allowed to react for 24 hours (ET-1, K10), 48 hours (TGM1, ivl, HAS2), and 72 hours (FLG). Total RNA was extracted from the cells, reverse transcribed, and subjected to real time PCR. In the real time PCR, as target genes, endoserine-1 (ET-1; Hs00174961_m1), keratin 10 (K10; Hs01043114_g1), transglutaminase 1 (TGM1; Hs01070310_m1), involucrin (ivl; Hs00846307_s1), filaggrin (FLG; Hs00856927_g1) and hyaluronic acid synthase 2 (HAS2; Hs00193435_m1) were measured. GAPDH was used as a correction gene. Calculation was conducted by using a calibration curve method, and FAM pigment of TaqMan Gene Expression was used in primers and probes.
# (§2) For each peptide or the like of Examples 1 to 13 and Comparative Examples 1 to 27, RNA expression amounts of endoserine-1 (ET-1), keratin 10 (K10), transglutaminase 1 (TGM1), involucrin (ivl), filaggrin (FLG) and hyaluronic acid synthase 2 (HAS2) were measured. Values in the tables are each average value±standard deviation, and *, ** and *** denote that they are significant with P<0.05, P<0.01, and P<0.001, respectively with respect to the control in Paired-t-test.
# [2] = tested on: keratin 10 (K10); test: K10 expression promotion test (real time PCR); conditions: 0.5 mM, 24 hours, NHEK (NB), control 1.00, GAPDH corrected
# Procedure: as §1, §2
# [3] = tested on: transglutaminase 1 (TGM1); test: TGM1 expression promotion test (real time PCR); conditions: 0.5 mM, 48 hours, NHEK (NB), control 1.00, GAPDH corrected
# Procedure: as §1, §2
# [4] = tested on: involucrin (ivl); test: ivl expression promotion test (real time PCR); conditions: 0.5 mM, 48 hours, NHEK (NB), control 1.00, GAPDH corrected
# Procedure: as §1, §2
# [5] = tested on: filaggrin (FLG); test: FLG expression promotion test (real time PCR); conditions: 0.5 mM, 72 hours, NHEK (NB), control 1.00, GAPDH corrected
# Procedure: as §1, §2
# [6] = tested on: hyaluronic acid synthase 2 (HAS2); test: HAS2 expression promotion test (real time PCR); conditions: 0.5 mM, 48 hours, NHEK (NB), control 1.00, GAPDH corrected
# Procedure: as §1, §2
Compound,Endoserine-I RNA expression amount [1],Keratin 10 RNA expression amount [2],Transglutaminase 1 RNA expression amount [3],Involucrin RNA expression amount [4],Filaggrin RNA expression amount [5],Hyaluronic acid synthase 2 RNA expression amount [6]
"N[C@@H](Cc1ccccc1)C(=O)O [Comparative Example 14, L-phenylalanine]",1.05 ± 0.05,0.78 ± 0.07,0.72 ± 0.05**,0.87 ± 0.04,0.59 ± 0.05**,0.89 ± 0.84
Ala-[Hyp]-Gly [Example 7],0.52 ± 0.01,5.06 ± 0.37***,2.00 ± 0.02***,1.36 ± 0.07*,3.09 ± 0.23**,2.21 ± 0.67**
(Pro-Hyp-Gly)2 [Example 2],0.43 ± 0.03***,5.69 ± 0.28***,7.21 ± 0.03**,4.35 ± 0.04***,9.58 ± 1.02***,3.11 ± 0.89**
"C[C@H](N)C(=O)O [Comparative Example 12, L-alanine]",1.58 ± 0.05**,0.82 ± 0.02*,0.95 ± 0.04,0.64 ± 0.15**,0.69 ± 0.02**,0.89 ± 0.57
Phe-Hyp [Example 11],0.97 ± 0.16,2.22 ± 0.01***,1.46 ± 0.02*,1.85 ± 0.00***,1.95 ± 0.19*,1.63 ± 0.49*
"N[C@@H](CO)C(=O)O [Comparative Example 13, L-serine]",1.64 ± 0.07**,0.69 ± 0.03**,0.85 ± 0.02,0.98 ± 0.05,0.85 ± 0.08,0.81 ± 0.50
Pro-Gly [Comparative Example 4],1.06 ± 0.10**,0.89 ± 0.01*,0.64 ± 0.01***,0.72 ± 0.02*,0.86 ± 0.18,0.54 ± 0.98*
(Pro-Hyp-Gly)5 [Example 1],0.32 ± 0.00*,6.40 ± 0.06,13.50 ± 2.69**,7.96 ± 0.60**,11.23 ± 1.56***,3.45 ± 1.02**
"O=C(O)[C@@H]1C[C@@H](O)CN1 [Comparative Example 8, L-hydroxyproline]",1.52 ± 0.02***,0.64 ± 0.02**,0.94 ± 0.10,0.94 ± 0.04,0.89 ± 0.09,0.70 ± 0.29
Pro-Pro [Comparative Example 5],1.65 ± 0.07*,0.98 ± 0.16,0.64 ± 0.01***,0.56 ± 0.04*,0.66 ± 0.09**,0.78 ± 0.64*
"CC(C)C[C@H](N)C(=O)O [Comparative Example 10, L-leucine]",1.58 ± 0.05**,0.62 ± 0.01**,0.63 ± 0.07*,0.84 ± 0.03,0.89 ± 0.08,0.76 ± 0.07*
"O=C(O)[C@@H]1CCCN1 [Comparative Example 7, L-proline]",1.89 ± 0.06**,0.73 ± 0.03**,1.02 ± 0.13,0.78 ± 0.01**,0.85 ± 0.18,0.84 ± 0.47
